What was measured:
Motilin receptor [1] = biological target: T1, Motilin receptor (Homo sapiens, UniProt O43193); test: In vitro effective concentration towards human motilin receptor; format: functional
Motilin receptor [2] = biological target: T1, Motilin receptor; test: In vitro binding affinity towards human motilin receptor

T1 sequence (O43193 whole entry): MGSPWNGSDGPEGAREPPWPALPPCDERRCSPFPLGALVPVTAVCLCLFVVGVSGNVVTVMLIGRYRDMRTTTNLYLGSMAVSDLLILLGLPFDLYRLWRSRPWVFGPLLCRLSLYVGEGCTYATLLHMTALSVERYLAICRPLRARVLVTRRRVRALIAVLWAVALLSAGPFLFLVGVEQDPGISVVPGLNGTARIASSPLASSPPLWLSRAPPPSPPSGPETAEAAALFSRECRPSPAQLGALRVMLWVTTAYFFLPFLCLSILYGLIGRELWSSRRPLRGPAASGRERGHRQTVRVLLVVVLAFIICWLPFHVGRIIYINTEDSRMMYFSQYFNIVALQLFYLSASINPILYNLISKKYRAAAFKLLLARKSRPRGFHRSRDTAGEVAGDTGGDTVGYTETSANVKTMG

EC50 (Motilin receptor [1]) | Ki (Motilin receptor [2]) | Compound
4200 nM | – | NC(=O)[C@@H](Cc1ccccc1)NC(=O)C1C=CC2(CCNCC2)n2c(=O)n(Cc3ccc4c(c3)OCO4)c(=O)n21 (stereo partly specified)
7.3 nM | 2.7 nM | NC(=O)[C@@H](CCc1ccccc1)NC(=O)[C@@H](CCc1ccccc1)NC(=O)C1CCC2(CCNCC2)n2c(=O)n(Cc3ccc4c(c3)OCO4)c(=O)n21 (stereo partly specified)
> 10000 nM | – | NC(=O)[C@H](Cc1ccccc1)NC(=O)C1C=CC2(CCNCC2)n2c(=O)n(Cc3ccc4c(c3)OCO4)c(=O)n21 (stereo partly specified)
4.2 nM | 3.4 nM | CC[C@H]1OC(=O)[C@H](C)[C@@H](O[C@H]2C[C@@](C)(OC)C[C@@H](C)O2)[C@H](C)[C@@H](O[C@@H]2O[C@H](C)C[C@H](N(C)CC)[C@H]2O)[C@@]2(C)CC(C)=C(O2)[C@H](C)[C@@H](O)[C@H]1C
> 10000 nM | – | C[C@H](NC(=O)C1C=CC2(CCNCC2)n2c(=O)n(Cc3ccc4c(c3)OCO4)c(=O)n21)C(N)=O (stereo partly specified)
0.15 nM | 3.1 nM | CC[C@H](C)[C@H](NC(=O)[C@@H]1CCCN1C(=O)[C@@H](NC(=O)[C@@H](N)Cc1ccccc1)C(C)C)C(=O)N[C@@H](Cc1ccccc1)C(=O)N[C@H](C(=O)N[C@@H](Cc1ccc(O)cc1)C(=O)NCC(=O)N[C@@H](CCC(=O)O)C(=O)N[C@@H](CC(C)C)C(=O)N[C@@H](CCC(N)=O)C(=O)N[C@@H](CCCNC(=N)N)C(=O)N[C@@H](CCSC)C(=O)N[C@@H](CCC(N)=O)C(=O)N[C@@H](CCC(=O)O)C(=O)N[C@@H](CCCCN)C(=O)N[C@@H](CCC(=O)O)C(=O)N[C@@H](CCCNC(=N)N)C(=O)N[C@@H](CC(N)=O)C(=O)N[C@@H](CCCCN)C(=O)NCC(=O)N[C@@H](CCC(N)=O)C(=O)O)[C@@H](C)O [MOTILIN]
> 10000 nM | – | C[C@@H](NC(=O)C1C=CC2(CCNCC2)n2c(=O)n(Cc3ccc4c(c3)OCO4)c(=O)n21)C(N)=O (stereo partly specified)
0.35 nM | 1 nM | NC(=O)[C@H](CCc1ccccc1)NC(=O)[C@H](CCc1ccccc1)NC(=O)C1CCC2(CCNCC2)n2c(=O)n(Cc3ccc4c(c3)OCO4)c(=O)n21 (stereo in doubt; 11)
0.047 nM | 0.7 nM | NC(=O)[C@H](CCc1ccccc1)NC(=O)[C@H](CCc1ccccc1)NC(=O)C1CCC2(CCNCC2)n2c(=O)n(Cc3ccc4c(c3)OCO4)c(=O)n21 (stereo in doubt; 11A)
0.22 nM | 2 nM | NC(=O)[C@H](CCc1ccccc1)NC(=O)[C@H](CCc1ccccc1)NC(=O)C1C=CC2(CCNCC2)n2c(=O)n(Cc3ccc4c(c3)OCO4)c(=O)n21 (stereo partly specified)
> 10000 nM | > 10000 nM | COC(=O)[C@@H](CCc1ccccc1)NC(=O)C1C=CC2(CCNCC2)n2c(=O)n(Cc3ccc4c(c3)OCO4)c(=O)n21 (stereo partly specified)

Compound | EC50 (Motilin receptor [1]) | Ki (Motilin receptor [2])
NC(=O)[C@H](CCc1ccccc1)NC(=O)C1C=CC2(CCNCC2)n2c(=O)n(Cc3ccc4c(c3)OCO4)c(=O)n21 (stereo in doubt; 1B) | 560 nM | 4100 nM
NC(=O)[C@H](CCc1ccccc1)NC(=O)C1C=CC2(CCNCC2)n2c(=O)n(Cc3ccc4c(c3)OCO4)c(=O)n21 (stereo in doubt; 13B) | > 10000 nM | > 10000 nM
NC(=O)[C@H](CCc1ccccc1)NC(=O)C1C=CC2(CCNCC2)n2c(=O)n(Cc3ccc4c(c3)OCO4)c(=O)n21 (stereo in doubt; 1A) | > 10000 nM | 5800 nM
NC(=O)[C@@H](CCc1ccccc1)NC(=O)C1C=CC2(CCNCC2)n2c(=O)n(Cc3ccc4c(c3)OCO4)c(=O)n21 (stereo partly specified) | > 10000 nM | > 10000 nM

From ChEMBL document CHEMBL1149119, “Discovery of a potent and novel motilin agonist” (J Med Chem, 2004)
